Values of other authors as cited in patent EP1844782A1 (priority 2006, dated 2007).

Test system: EAE
Conditions: EAE (Craner et al., 2005)

Which “ameliorates the inflammatory cell infiltrate in EAE” value does the source give for O=C1NC(=O)C(c2ccccc2)(c2ccccc2)N1 [phenytoin] here?
The value was 75%.
